# Data reported in patent US11702422B2, “Imidazopyridazines as modulators of IL-17” (Janssen Pharmaceutica NV, priority 2020, dated 2023).
# pIC50: −log10 of the molar value.
# Columns and labels:
# [1] = target: IL-17A(FLAG-Tagged): IL-17RA(His-Tagged) (Homo sapiens, UniProt Q16552, K93Q); experiment: IL-17A(FLAG-Tagged): IL-17RA(His-Tagged) Binding Disruption Eu-HTRF Assay; conditions: IL-17A/IL-17RA binding disruption, simple average if tested more than once
# In short: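 IC50 comes from a one-site competition fit of the HTRF 665/620 nm ratio. Compound dilutions (2-fold, 22 points) were held 1 h rt with FLAG-tagged IL-17A dimer, then His-tagged IL-17RA plus Eu-cryptate anti-FLAG and D2 anti-His antibodies were added for 2 h rt.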
# [2] = test system: IL-17A-induced G-CSF production in human normal keratinocyte (NHK); experiment: NHK Assay: IL-17A-induced G-CSF production in human normal keratinocytes; type: cell-based; conditions: 24 h, adult normal human keratinocytes, IL-17A 5 ng/mL, simple average if tested more than once
# In short: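 G-CSF released by primary adult human keratinocytes after 24 h at 37° C was quantified by HTRF via standard curve to give IC50. Stimulus was 5 ng/mL IL-17A pre-mixed 1 h at rt with compound dilutions, in 5% FBS and 0.2% DMSO. Cell viability was assessed in parallel with CellTiter-Glo.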
# Sequence of UniProt Q16552 (Q16552 with tags, fused parts or gaps K93Q): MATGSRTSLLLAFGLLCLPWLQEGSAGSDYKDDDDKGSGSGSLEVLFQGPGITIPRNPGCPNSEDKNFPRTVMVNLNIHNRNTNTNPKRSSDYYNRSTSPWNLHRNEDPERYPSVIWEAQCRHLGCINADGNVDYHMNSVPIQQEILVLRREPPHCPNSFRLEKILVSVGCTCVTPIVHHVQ
Structure (SMILES),pIC50 [1],"pIC50 ([2]; Homo sapiens, Keratinocyte)",pIC50 [2]
"[2H]C([2H])([2H])C([2H])([2H])n1nccc1C(=O)N[C@@H](CC(C)(C)C(F)(F)F)c1cn2ncc([C@H](NC(=O)CC3CC(F)(F)C3)C3CC3)cc2n1 [Example 545, N—((S)-1-(7-((R)-Cyclopropyl(2-(3,3-difluorocyclobutyl)acetamido)methyl)imidazo[1,2-b]pyridazin-2-yl)-4,4,4-trifluoro-3,3-dimethylbutyl)-1-(ethyl-d5)-1H-pyrazole-5-carboxamide]",6.77,6.82,–
"O=C(CCC(F)(F)F)N[C@@H](c1cnn2cc([C@@H](NC(=O)c3ncnn3C3CC3)C3CCC(F)(F)CC3)nc2c1)C1CC1 [Example 103, 1-Cyclopropyl-N—((S)-(7-((R)-cyclopropyl(4,4,4-trifluorobutanamido)methyl)imidazo[1,2-b]pyridazin-2-yl)(4,4-difluorocyclohexyl)methyl)-1H-1,2,4-triazole-5-carboxamide]",6.96,6.43,–
"COc1ccnc(C(=O)N[C@H](c2cn3ncc([C@H](NC(=O)CCC(F)(F)F)C4CC4)cc3n2)C2CCC(F)(F)CC2)c1 [Example 196, N—((S)-(7-((R)-Cyclopropyl(4,4,4-trifluorobutanamido)methyl)imidazo[1,2-b]pyridazin-2-yl)(4,4-difluorocyclohexyl)methyl)-4-methoxypicolinamide]",6.32,5.77,–
"CC(C)n1nccc1C(=O)N[C@@H](COC(C)(C)C)c1cn2ncc(C(NC(=O)CCC(F)(F)F)C3CC3)cc2n1 (single isomer, unassigned) [Example 317, N—((R)-2-(tert-Butoxy)-1-(7-((S*)-cyclopropyl(4,4,4-trifluorobutanamido)methyl)imidazo[1,2-b]pyridazin-2-yl)ethyl)-1-isopropyl-1H-pyrazole-5-carboxamide]",5.00,–,< 4.70
"CC(C)n1nccc1C(=O)N[C@@H](COC(C)(C)C)c1cn2ncc(C(NC(=O)CCC(F)(F)F)C3CC3)cc2n1 (single isomer, unassigned) [Example 316, N—((R)-2-(tert-Butoxy)-1-(7-((R*)-cyclopropyl(4,4,4-trifluorobutanamido)methyl)imidazo[1,2-b]pyridazin-2-yl)ethyl)-1-isopropyl-1H-pyrazole-5-carboxamide]",6.62,–,6.15
"O=C(CCC(F)(F)F)N[C@@H](c1cnn2cc([C@@H](NC(=O)c3cncc(CCC(F)F)c3)C3CCC(F)(F)CC3)nc2c1)C1CC1 [Example 151, N—((S)-(7-((R)-Cyclopropyl(4,4,4-trifluorobutanamido)methyl)imidazo[1,2-b]pyridazin-2-yl)(4,4-difluorocyclohexyl)methyl)-5-(3,3-difluoropropyl)nicotinamide]",7.17,6.70,–
"O=C(CCC(F)(F)F)N[C@@H](c1cnn2cc([C@@H](NC(=O)c3ncnn3CCF)C3CCC(F)(F)CC3)nc2c1)C1CC1 [Example 57, N—((S)-(7-((R)-Cyclopropyl(4,4,4-trifluorobutanamido)methyl)imidazo[1,2-b]pyridazin-2-yl)(4,4-difluorocyclohexyl)methyl)-1-(2-fluoroethyl)-1H-1,2,4-triazole-5-carboxamide]",6.66,6.11,–
"CC(C)n1ncnc1C(=O)N[C@H](c1cn2ncc(C(NC(=O)CC3CC(F)(F)C3)C3CCOCC3)cc2n1)C1CCC(F)(F)CC1 (stereo in doubt) [Example 537, N—((S)-(7-((R*)-(2-(3,3-Difluorocyclobutyl)acetamido)(tetrahydro-2H-pyran-4-yl)methyl)imidazo[1,2-b]pyridazin-2-yl)(4,4-difluorocyclohexyl)methyl)-1-isopropyl-1H-1,2,4-triazole-5-carboxamide]",6.82,6.82,–

# More lines, in order of rising pIC50 [1], values ahead:
pIC50 [1],Structure (SMILES),"pIC50 ([2]; Homo sapiens, Keratinocyte)",pIC50 [2]
4.82,"Cc1cncc(C(=O)N[C@H](c2cn3ncc([C@H](NC(=O)CCC(F)(F)F)C4CC4)cc3n2)C2CCC(F)(F)CC2)n1 [Example 220, N—((S)-(7-((R)-Cyclopropyl(4,4,4-trifluorobutanamido)methyl)imidazo[1,2-b]pyridazin-2-yl)(4,4-difluorocyclohexyl)methyl)-6-methylpyrazine-2-carboxamide]",< 4.70,–
4.85,"CC(C)n1nccc1C(=O)N[C@H](c1cn2ncc(C(NC(=O)CC(C)(C)O)C3CC3)cc2n1)C1CCC(F)(F)CC1 (single isomer, unassigned) [Example 137, N—((S)-(7-((S*)-Cyclopropyl(3-hydroxy-3-methylbutanamido)methyl)imidazo[1,2-b]pyridazin-2-yl)(4,4-difluorocyclohexyl)methyl)-1-isopropyl-1H-pyrazole-5-carboxamide]",–,< 4.70
5.92,"Cn1ccnc1C(=O)N[C@H](c1cn2ncc([C@H](NC(=O)CCC(F)(F)F)C3CC3)cc2n1)C1CCC(F)(F)CC1 [Example 469, N—((S)-(7-((R)-Cyclopropyl(4,4,4-trifluorobutanamido)methyl)imidazo[1,2-b]pyridazin-2-yl)(4,4-difluorocyclohexyl)methyl)-1-methyl-1H-imidazole-2-carboxamide]",< 4.70,–
6.14,"Cc1nonc1C(=O)N[C@H](c1cn2ncc([C@H](NC(=O)[C@@H](F)[C@@H](C)C(F)(F)F)C3CC3)cc2n1)C1CCC(F)(F)CC1 (relative stereo) [Example 354, N—((S)-(7-((R)-Cyclopropyl((2S*,3R*)-2,4,4,4-tetrafluoro-3-methylbutanamido)methyl)imidazo[1,2-b]pyridazin-2-yl)(4,4-difluorocyclohexyl)methyl)-4-methyl-1,2,5-oxadiazole-3-carboxamide]",5.57,–
6.25,"Cc1nonc1C(=O)N[C@H](c1cn2ncc([C@H](NC(=O)C(C)CC(F)F)C3CC3)cc2n1)C1CCC(F)(F)CC1 (single isomer, unassigned) [Example 330, N—((S)-(7-((R)-Cyclopropyl((R*)-4,4-difluoro-2-methylbutanamido)methyl)imidazo[1,2-b]pyridazin-2-yl)(4,4-difluorocyclohexyl)methyl)-4-methyl-1,2,5-oxadiazole-3-carboxamide]",–,5.66
6.70,"CC(C)n1nccc1C(=O)N[C@H](c1cn2ncc([C@H](NC(=O)CCCF)C3CC3)cc2n1)C1CCC(F)(F)CC1 [Example 251, N—((S)-(7-((R)-Cyclopropyl(4-fluorobutanamido)methyl)imidazo[1,2-b]pyridazin-2-yl)(4,4-difluorocyclohexyl)methyl)-1-isopropyl-1H-pyrazole-5-carboxamide]",6.11,–
6.85,"O=C(CCC(F)(F)F)N[C@@H](c1cnn2cc([C@@H](NC(=O)[C@@H]3C(F)(F)C34CCC4)C3CCC(F)(F)CC3)nc2c1)C1CC1 (relative stereo) [Example 369, (R*)—N—((S)-(7-((R*)-Cyclopropyl(4,4,4-trifluorobutanamido)methyl)imidazo[1,2-b]pyridazin-2-yl)(4,4-difluorocyclohexyl)methyl)-2,2-difluorospiro[2.3]hexane-1-carboxamide]",6.28,–
6.85,"CC(C)n1nccc1C(=O)N[C@H](c1cn2ncc([C@H](NC(=O)CC3(C(F)(F)F)CC3)C3CC3)cc2n1)C1CCC(F)(F)CC1 [Example 244, N—((S)-(7-((R)-Cyclopropyl(2-(1-(trifluoromethyl)cyclopropyl)acetamido)methyl)imidazo[1,2-b]pyridazin-2-yl)(4,4-difluorocyclohexyl)methyl)-1-isopropyl-1H-pyrazole-5-carboxamide]",6.92,–
7.00,"CCc1cncc(C(=O)N[C@H](c2cn3ncc([C@H](NC(=O)CCC(F)(F)F)C4CC4)cc3n2)C2CCC(F)(F)CC2)c1 [Example 452, N—((S)-(7-((R)-Cyclopropyl(4,4,4-trifluorobutanamido)methyl)imidazo[1,2-b]pyridazin-2-yl)(4,4-difluorocyclohexyl)methyl)-5-ethylnicotinamide]",6.24,–
7.00,"O=C(CCC(F)(F)F)N[C@@H](c1cnn2cc([C@@H](NC(=O)c3ncnn3CCOC(F)F)C3CCC(F)(F)CC3)nc2c1)C1CC1 [Example 55, N—((S)-(7-((R)-Cyclopropyl(4,4,4-trifluorobutanamido)methyl)imidazo[1,2-b]pyridazin-2-yl)(4,4-difluorocyclohexyl)methyl)-1-(2-(difluoromethoxy)ethyl)-1H-1,2,4-triazole-5-carboxamide]",6.68,–
7.03,"O=C(CC1CC(F)(F)C1)N[C@@H](c1cnn2cc([C@@H](NC(=O)c3nonc3C3(O)CCCC3)C3CCC(F)(F)CC3)nc2c1)C1CC1 [Example 393, N—((S)-(7-((R)-Cyclopropyl(2-(3,3-difluorocyclobutyl)acetamido)methyl)imidazo[1,2-b]pyridazin-2-yl)(4,4-difluorocyclohexyl)methyl)-4-(1-hydroxycyclopentyl)-1,2,5-oxadiazole-3-carboxamide]",6.92,–
7.89,"CCc1nonc1C(=O)N[C@H](c1cn2ncc([C@H](NC(=O)CCC(F)(F)F)C3CC3)cc2n1)C1CCC(F)(F)CC1 [Example 156, N—((S)-(7-((R)-Cyclopropyl(4,4,4-trifluorobutanamido)methyl)imidazo[1,2-b]pyridazin-2-yl)(4,4-difluorocyclohexyl)methyl)-4-ethyl-1,2,5-oxadiazole-3-carboxamide]",7.22,–
